Tests used:
Assay in all cases: relative viability (nuclei count vs DMSO), 5 days (fraction); higher = more cells survive
FH535 + Linsitinib = compound: CC1=C(C=CC(=C1)[N+](=O)[O-])NS(=O)(=O)C2=C(C=CC(=C2)Cl)Cl [FH535] + C[C@]1(O)C[C@@H](c2nc(-c3ccc4ccc(-c5ccccc5)nc4c3)c3c(N)nccn32)C1 [Linsitinib] (partner 1 µM)
In short: (§1)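 Five library-drug doses in √10 steps were combined with a fixed anchor-drug dose, or a single drug was given alone, by pin tool to lung cancer cell lines in 1536-well plates the day after seeding. Nuclei were stained and counted after 5 days. Relative viability is the nuclei count in treated wells over that in vehicle wells, taken as the median of duplicate plates.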

FH535 + Phenformin = compound: CC1=C(C=CC(=C1)[N+](=O)[O-])NS(=O)(=O)C2=C(C=CC(=C2)Cl)Cl [FH535] + N=C(N)NC(=N)NCCc1ccccc1 [Phenformin] (partner 250 µM)
In short: as §1

FH535 + Luminespib = compound: CC1=C(C=CC(=C1)[N+](=O)[O-])NS(=O)(=O)C2=C(C=CC(=C2)Cl)Cl [FH535] + CCNC(=O)c1noc(-c2cc(C(C)C)c(O)cc2O)c1-c1ccc(CN2CCOCC2)cc1 [Luminespib] (partner 0.01 µM)
In short: as §1

FH535 + Pictilisib = compound: CC1=C(C=CC(=C1)[N+](=O)[O-])NS(=O)(=O)C2=C(C=CC(=C2)Cl)Cl [FH535] + CS(=O)(=O)N1CCN(Cc2cc3nc(-c4cccc5[nH]ncc45)nc(N4CCOCC4)c3s2)CC1 [Pictilisib] (partner 1 µM)
In short: as §1

FH535 + Crizotinib = compound: CC1=C(C=CC(=C1)[N+](=O)[O-])NS(=O)(=O)C2=C(C=CC(=C2)Cl)Cl [FH535] + C[C@@H](Oc1cc(-c2cnn(C3CCNCC3)c2)cnc1N)c1c(Cl)ccc(F)c1Cl [Crizotinib] (partner 1 µM)
In short: as §1

Cell Line	relative viability (FH535 + Linsitinib; first compound 0.04 µM)	relative viability (FH535 + Linsitinib; first compound 0.1265 µM)	relative viability (FH535 + Linsitinib; first compound 0.4 µM)	relative viability (FH535 + Linsitinib; first compound 1.265 µM)	relative viability (FH535 + Phenformin; first compound 0.04 µM)	relative viability (FH535 + Phenformin; first compound 0.1265 µM)	relative viability (FH535 + Phenformin; first compound 0.4 µM)	relative viability (FH535 + Phenformin; first compound 1.265 µM)	relative viability (FH535 + Luminespib; first compound 0.04 µM)	relative viability (FH535 + Luminespib; first compound 0.1265 µM)	relative viability (FH535 + Luminespib; first compound 0.4 µM)	relative viability (FH535 + Luminespib; first compound 1.265 µM)	relative viability (FH535 + Pictilisib; first compound 0.04 µM)	relative viability (FH535 + Pictilisib; first compound 0.1265 µM)	relative viability (FH535 + Pictilisib; first compound 0.4 µM)	relative viability (FH535 + Pictilisib; first compound 1.265 µM)	relative viability (FH535 + Crizotinib; first compound 0.04 µM)	relative viability (FH535 + Crizotinib; first compound 0.1265 µM)	relative viability (FH535 + Crizotinib; first compound 0.4 µM)	relative viability (FH535 + Crizotinib; first compound 1.265 µM)
PC-14	0.996	0.937	0.959	0.851	0.571	0.708	0.516	0.331	0.126	0.168	0.152	0.117	0.73	0.743	0.709	0.655	0.94	0.917	0.863	0.889
NCI-H322M	0.982	1.07	1	0.847	0.813	0.844	0.707	0.601	0.816	0.904	0.866	0.805	0.471	0.539	0.436	0.497	0.819	0.906	1.03	1.04
NCI-H1944		1.31	1.22	1.05	0.17	0.205	0.161	0.109	0.672	0.82	0.727	0.669		0.37	0.34	0.344		1.18	0.962	0.907
NCI-H2170					0.394	0.416	0.319	0.28	0.726	0.606	0.661	0.426	0.255	0.418	0.315	0.285	1.14	1.3	1.19	1.04
LK-2	0.477	0.487	0.673	0.561	0.35	0.521	0.495	0.211	0.201	0.165	0.168	0.173	0.546	0.573	0.58	0.489	0.224	0.236	0.252	0.226
RERF-LC-KJ	0.872	0.896	0.854	0.752	0.38	0.429	0.406	0.308	1.27	1.14	1.13	0.728	0.49	0.534	0.478	0.392	0.856	0.826	0.86	0.671
COR-L23	0.926	0.889	0.722	0.581	0.423	0.486	0.342	0.217	0.73	0.612	0.5	0.435	0.734	0.816	0.624	0.531	0.626	0.656	0.57	0.434
NCI-H1355	0.745	0.822	0.78	0.633	0.425	0.42	0.353	0.269	0.667	0.761	0.72	0.463	0.362	0.503	0.378	0.33	0.929	1.14	0.977	0.555
NCI-H520	0.982	0.959	0.915	0.873	0.36	0.611	0.55	0.429	0.159	0.212	0.257	0.24	0.274	0.201	0.303	0.279	0.716	0.893	0.803	0.754
NCI-H1993	0.703	0.734	0.673	0.745	0.415	0.495	0.533	0.524	0.87	0.736	0.55	0.449	0.679	0.747	0.769	0.709	0.809	0.911	0.589	0.609
ChaGo-K-1					0.462	0.554	0.428	0.384	0.653	0.665	0.55	0.576	0.55	1.07	0.658	0.436	1.05	1.19	1.09	0.708
HCC-15	0.879	0.862	0.884	0.595	0.432	0.443	0.343	0.213	0.287	0.302	0.255	0.302	0.672	0.668	0.674	0.594	0.798	0.819	0.747	0.52
NCI-H2347	1.02	1.05	0.902	0.812	0.409	0.332	0.425	0.27	0.617	0.333	0.39	0.752	0.484	0.591	0.639	0.726	0.677	0.617	0.807	0.649
NCI-H1395	0.877	1.41	1.07	0.862	0.443	0.448	0.396	0.348	0.738	0.576	0.784	0.581	0.583	0.645	0.64	0.541				
NCI-H1666	0.88	0.78	0.753	0.55	0.582	0.513	0.476	0.373	0.988	0.933	0.966	0.983	0.481	0.443	0.404	0.4	1.06	0.979	0.956	0.871
NCI-H3122	0.989	1.07	0.977	0.895	0.374	0.344	0.286	0.164	0.0802	0.122	0.0923	0.0705	0.583	0.585	0.57	0.564	0.261	0.282	0.253	0.285
NCI-H2009	1.2	1.09	1.13	1.05	0.486	0.447	0.402	0.179	0.996	1.02	0.938	0.686	0.753	0.87	0.724	0.763	1.1	1.06	0.903	0.677
HCC-78	0.456	0.557	0.558	0.527	0.626	0.783	0.63	0.592					0.193	0.223	0.187	0.204	0.3	0.373	0.342	0.311
NCI-H358	0.696	0.822	0.791	0.552	0.256	0.327	0.265	0.153	0.325	0.368	0.293	0.308	0.326	0.338	0.247	0.271	0.482	0.576	0.582	0.542
NCI-H1793	0.785	0.917	0.867	0.778	0.39	0.256	0.278	0.211	0.168	0.229	0.19	0.143	0.344	0.401	0.313	0.301				
HCC-366	0.578	0.852	0.514	0.465	0.607	0.522	0.48	0.41					0.132	0.137	0.116	0.125	0.392	0.614	0.594	0.354
NCI-H1651	0.999	0.949	0.942	0.731	0.318	0.319	0.221	0.188	1.01	0.701	0.748	0.591	0.572	0.504	0.562	0.509	0.856	0.81	0.853	0.611
LC-2-ad	0.846	0.829	0.771	0.502	0.482	0.58	0.425	0.368	0.967	1.16	1.03	0.755	0.462	0.466	0.162	0.33	0.462	0.477	0.458	0.452
HCC-827	0.89	0.937	0.863	0.714	0.407	0.387	0.383	0.313	0.676	0.794	0.682	0.336	0.894	1	0.824	0.728	0.924	0.872	0.904	0.564
NCI-H1703	1.02	0.635	0.561	0.564									0.195	0.213	0.257	0.219	0.922	0.63	0.589	0.408
NCI-H1650					0.365	0.405	0.33	0.201	0.175	0.218	0.201	0.189	0.503	0.56	0.545	0.594	1.01	1.09	1.15	0.839
NCI-H522					0.591	0.575	0.621	0.62	1.29	1.17	1.16	0.996								
NCI-H2342					0.559	0.602	0.611	0.437	0.738	0.713	0.705	0.6								
SW 900					0.569	0.667	0.48	0.236	0.186	0.163	0.161	0.178								
IA-LM	0.624	0.525	0.687	0.45									0.328	0.396	0.389	0.303	0.867	0.771	0.645	0.633

— the supplement of paper PMC10307832
